Data as given in patent publication US11274102B2, “Compounds useful in HIV therapy” (GLAXOSMITHKLINE INTELLECTUAL PROPERTY DEVELOPMENT LIMITED, priority 2017, dated 2022).
pEC50: −log10 of the molar value. Like-named read-outs stand apart in the source and are kept apart here.

Legend:
[1] = system: CD4+ T cells from HIV-infected donors; experiment: HIV latency disruption in primary patient CD4+ T cells (HIV gag RNA by RT-qPCR); format: cell-based; conditions: Homo sapiens; for EC50: average potency from multiple donors, CD4+ T cells from HIV-infected donors, 24 hours, gag RNA, read-out: CD4 Mean PXC50 (converted)
Protocol: For the assessment of compound activity in primary patient cells, PBMCs were obtained by continuous-flow leukapheresis from HIV-infected, antiretrovirally-treated, aviremic patients whose plasma HIV-1 RNA was less than 50 copies/mL at the time of collection. PBMCs were isolated by Ficoll-Hypaque density gradient centrifugation and cryopreserved in the vapor phase of liquid nitrogen. On the day of assay, cells were rapidly thawed to room temperature in a 37° C. water bath and total CD4+ T cells were isolated by negative selection (Stemcell Technologies). CD4+ T cells were reconstituted in assay medium (RPMI-1640 containing 10% fetal bovine serum, 10 ug/mL Fuzeon® and 200 nM Rilpivirin) and 5×10^6 were plated onto 2 mL 96-well polypropylene plates. Compounds were dissolved in DMSO, diluted 1:250 into assay medium and then titrated into assay medium supplemented with 0.4% DMSO with a minimum of 3 biological replicates per each treatment condition. Compound titrations were transferred to the cells and the assay plates were incubated at 37° C. for 24 hours. Following incubation, the assay plates were centrifuged at 400×g for 10 minutes and the cell-free supernatants were removed and discarded. The nucleic acid from the cell pellets were extracted, purified and segregated into RNA and DNA components using AllPrep DNA/RNA 96-well kits (Qiagen). HIV reactivation was quantified from the RNA fraction by one-step RT-qPCR (applied Biosystems) using primers and probe that target gag messenger RNA. HIV copies were calculated based on extrapolations from standard curves generated with known quantities of synthetic target HIV gag DNA in the same PCR reaction plate as the samples. A minimum of 3 technical RT-qPCR replicates were run for each biological replicate.
Data were normalized and modeled accordingly raw data were used to calculate the absolute number of HIV-gag RNA copies per million CD4+ T cells, with the value for each compound and concentration based on the averaged value of 3 to 5 biological replicates, with each biological replicate value being the average of 3 technical RT-qPCR replicates.
The dose-response curve was fit to an unconstrained four parameter logistic equation, defined as: y=Vmax{1−[x^n÷(K^n+x^n)]}+Y2 • Where: • x=compound concentration • y=normalized response data • Vmax=upper bound of response • K=EC50 • Y2=lower bound or baseline of response • n=hill coefficient
An example of dose-response HIV latency disruption in vitro is presented in FIG. 1 comparing the compound of invention (Example-1) to the compound of prior art (Compound-A) in peripheral blood CD4+ T cells from a HIV-infected fully-suppressed subject. […]

[2] = system: HIV-infected Jurkat cell clones (C16, 115 and N6); experiment: Jurkat HIV Latency assay (HIV-expressed luciferase); format: cell-based; conditions: Homo sapiens, averaged potency for HIV latency disruption in Jurkat HIV cells, 24 hours incubation, read-out: Jurkat Mean PXC50 (converted)
Protocol: For the Jurkat HIV Latency assay, compounds were dissolved and titrated in DMSO and diluted 100-fold in assay medium (RPMI-1640 containing 10% fetal bovine serum) containing an equal mixture of three HIV-infected Jurkat cell clones (C16, 115 and N6) at a total concentration of 1-2×10^5 cells/mL. To test stability, compounds are pre-incubated in assay medium for 48 hours at 37° C. prior to adding cells (48 hr EC50). Compounds that induce HIV expression result in a dose-dependent production of the HIV expressed luciferase enzyme. After the incubation of cells with compound for 24 hours at 37° C., HIV activation and cytotoxicity are determined by measuring luminescence after the addition of Promega Steady-Glo® Luciferase Assay reagent or CellTiter-Glo® Luminescent Cell Viability Assay reagent, respectively.

SMILES	pEC50 ([1]; FIG. 1, peripheral blood CD4+ T cells from a HIV-infected fully-suppressed subject, cell-associated HIV gag RNA, 4-parameter logistic regression, read-out: EC50)	EC50 [1] [nM]	EC50 [2] [nM]
O=C1CCCN1Cc1nnc(Sc2ncnc3occ(-c4ccc(Cl)cc4)c23)o1 [Example 1, 1-((5-((5-(4-chlorophenyl)furo[2,3-d]pyrimidin-4-yl)thio)-1,3,4-oxadiazol-2-yl)methyl)pyrrolidin-2-one]	7.33	35.7	632
O=C1CCCN1Cc1nnc(Sc2ncnc3occ(-c4ccco4)c23)o1 [Example 4, 1-((5-((5-(furan-2-yl)furo[2,3-d]pyrimidin-4-yl)thio)-1,3,4-oxadiazol-2-yl)methyl)pyrrolidin-2-one]	–	15	491
O=C1CCCN1Cc1nnc(Sc2ncnc3occ(-c4cccs4)c23)o1 [Example 6, 1-((5-((5-(thiophen-2-yl)furo[2,3-d]pyrimidin-4-yl)thio)-1,3,4-oxadiazol-2-yl)methyl)pyrrolidin-2-one]	–	–	902
Cc1ccc(-c2coc3ncnc(Sc4nnc(CN5CCCC5=O)o4)c23)s1 [Example 7, 1-((5-((5-(5-methylthiophen-2-yl)furo[2,3-d]pyrimidin-4-yl)thio)-1,3,4-oxadiazol-2-yl)methyl)pyrrolidin-2-one]	–	390	625
